Calls of active or inactive are those of the source. How the calls were made is not given here.
Tested on: rodent lifetime carcinogenesis bioassay, tumor incidence TD50
Assay: chronic cancer bioassays in animals – CPDB, compiled studies (AID 1745844)

CCC[N+](=O)[O-]
carcinogen call (rat, strain Long-Evans BLU:(LE), females, inhaled, site: liver, lesion: hepatocellular carcinoma, dosed 52 weeks, study length 52 weeks): negative (inactive)
carcinogen call (rat, strain Long-Evans BLU:(LE), females, inhaled, site: liver, lesion: hepatocellular carcinoma, dosed 52 weeks, study length 93 weeks): negative (inactive)
carcinogen call (rat, strain Long-Evans BLU:(LE), females, inhaled, site: liver, lesion: hepatocellular carcinoma, dosed 78 weeks, study length 78 weeks): negative (inactive)
carcinogen call (rat, strain Long-Evans BLU:(LE), females, inhaled, site: liver, lesion: hepatocellular carcinoma, dosed 93 weeks, study length 93 weeks): negative (inactive)
carcinogen call (rat, strain Long-Evans BLU:(LE), males, inhaled, site: liver, lesion: hepatocellular carcinoma, dosed 52 weeks, study length 52 weeks): negative (inactive)
carcinogen call (rat, strain Long-Evans BLU:(LE), males, inhaled, site: liver, lesion: hepatocellular carcinoma, dosed 52 weeks, study length 93 weeks): negative (inactive)
carcinogen call (rat, strain Long-Evans BLU:(LE), males, inhaled, site: liver, lesion: hepatocellular carcinoma, dosed 78 weeks, study length 78 weeks): negative (inactive)
carcinogen call (rat, strain Long-Evans BLU:(LE), males, inhaled, site: liver, lesion: hepatocellular carcinoma, dosed 93 weeks, study length 93 weeks): negative (inactive)
TD50 (rat, strain Sprague-Dawley, males, by gavage, site: liver, lesion: hepatocellular adenoma, dosed 26 weeks, study length 77 weeks): 0.872 mg/kg/day (inactive)

CCO
carcinogen call (hamster, strain Syrian Golden, males, in drinking water, site: trachea, lesion: one or several types, types not named, dosed 29 weeks, study length 78 weeks): negative (inactive)
TD50 (mouse, strain A, males, in drinking water, site: liver, lesion: hepatocellular adenoma, dosed 72 weeks, study length 72 weeks): 127000 mg/kg/day
carcinogen call (mouse, strain BALB/c, males, in drinking water, site: forestomach, lesion: squamous-cell papilloma, dosed 69 weeks, study length 86 weeks): negative (inactive)
TD50 (mouse, strain Swiss, females, in drinking water, site: any site (literature study), lesion: several types, types named in the paper, dosed 69 weeks, study length 86 weeks): 21400 mg/kg/day (inactive)
TD50 (mouse, strain Swiss, females, in drinking water, site: forestomach, lesion: squamous-cell papilloma, dosed 69 weeks, study length 86 weeks): 10900 mg/kg/day (inactive)
carcinogen call (mouse, strain Swiss, males, in drinking water, site: lung, lesion: adenoma, dosed 69 weeks, study length 86 weeks): negative (inactive)
TD50 (rat, strain ACI, males, in drinking water, site: forestomach, lesion: papilloma, dosed 52 weeks, study length 52 weeks): 4980 mg/kg/day
carcinogen call (rat, strain Charles River CD (Sprague-Dawley), females, in drinking water, site: any site (literature study), lesion: one or several types, types not named, dosed 104 weeks, study length 104 weeks): negative (inactive)
carcinogen call (rat, strain Charles River CD (Sprague-Dawley), females, in drinking water, site: liver, lesion: neoplastic nodule, dosed 104 weeks, study length 104 weeks): negative (inactive)
carcinogen call (rat, strain Charles River CD (Sprague-Dawley), males, in drinking water, site: any site (literature study), lesion: one or several types, types not named, dosed 104 weeks, study length 104 weeks): negative (inactive)
carcinogen call (rat, strain Charles River CD (Sprague-Dawley), males, in drinking water, site: liver, lesion: hepatocellular carcinoma, dosed 104 weeks, study length 104 weeks): negative (inactive)
TD50 (rat, strain Charles River CD (Sprague-Dawley), males, in drinking water, site: liver, lesion: neoplastic nodule, dosed 104 weeks, study length 104 weeks): 84800 mg/kg/day (inactive)
carcinogen call (rat, strain F344/DuCrj, males, in drinking water, site: forestomach, lesion: one or several types, types not named, dosed 51 weeks, study length 52 weeks): negative (inactive)
carcinogen call (rat, strain F344/DuCrj, males, in drinking water, site: stomach, glandular, lesion: one or several types, types not named, dosed 51 weeks, study length 52 weeks): negative (inactive)
TD50 (rat, strain Slc-Wistar, males, in drinking water, site: liver, lesion: hepatocellular adenoma, dosed 120 weeks, study length 120 weeks): 56100 mg/kg/day (inactive)
TD50 (rat, strain Slc-Wistar, males, in drinking water, site: liver, lesion: hepatocellular carcinoma, dosed 120 weeks, study length 120 weeks): 93900 mg/kg/day (inactive)
TD50 (rat, strain Slc-Wistar, males, in drinking water, site: liver, lesion: several types, types named in the paper, dosed 120 weeks, study length 120 weeks): 33800 mg/kg/day (inactive)
carcinogen call (rat, strain Sprague-Dawley, both sexes, in drinking water, site: any site (literature study), lesion: malignant tumor, dosed 111 weeks, study length 111 weeks): negative (inactive)
TD50 (rat, strain Sprague-Dawley, females, in drinking water, site: any site (literature study), lesion: malignant tumor, dosed 104 weeks, study length 120 weeks): 61000 mg/kg/day
TD50 (rat, strain Sprague-Dawley, females, in drinking water, site: any site (literature study), lesion: several types, types named in the paper, dosed 104 weeks, study length 120 weeks): 5870 mg/kg/day
TD50 (rat, strain Sprague-Dawley, females, in drinking water, site: liver, lesion: hepatocellular adenoma, dosed 104 weeks, study length 120 weeks): 201000 mg/kg/day
TD50 (rat, strain Sprague-Dawley, females, in drinking water, site: mammary gland, lesion: benign tumor, dosed 104 weeks, study length 120 weeks): 6070 mg/kg/day
TD50 (rat, strain Sprague-Dawley, females, in drinking water, site: mammary gland, lesion: fibroadenoma, dosed 104 weeks, study length 120 weeks): 8790 mg/kg/day
TD50 (rat, strain Sprague-Dawley, females, in drinking water, site: mammary gland, lesion: several types, types named in the paper, dosed 104 weeks, study length 120 weeks): 4710 mg/kg/day
TD50 (rat, strain Sprague-Dawley, females, in drinking water, site: pancreas, lesion: adenoma, dosed 104 weeks, study length 120 weeks): 21900 mg/kg/day
TD50 (rat, strain Sprague-Dawley, females, in drinking water, site: pituitary gland, lesion: neoplasm, NOS, dosed 104 weeks, study length 120 weeks): 5480 mg/kg/day
TD50 (rat, strain Sprague-Dawley, males, in drinking water, site: adrenal gland, lesion: one or several types, types not named, dosed 130 weeks, study length 130 weeks): 13700 mg/kg/day
TD50 (rat, strain Sprague-Dawley, males, in drinking water, site: any site (literature study), lesion: malignant tumor, dosed 104 weeks, study length 120 weeks): 7180 mg/kg/day
TD50 (rat, strain Sprague-Dawley, males, in drinking water, site: any site (literature study), lesion: several types, types named in the paper, dosed 104 weeks, study length 120 weeks): 1210 mg/kg/day
TD50 (rat, strain Sprague-Dawley, males, in drinking water, site: any site (literature study), lesion: several types, types named in the paper, dosed 130 weeks, study length 130 weeks): 2130 mg/kg/day
TD50 (rat, strain Sprague-Dawley, males, in drinking water, site: liver, lesion: hepatocellular carcinoma, dosed 104 weeks, study length 120 weeks): 164000 mg/kg/day
TD50 (rat, strain Sprague-Dawley, males, in drinking water, site: liver, lesion: hepatocellular carcinoma, dosed 130 weeks, study length 130 weeks): 28400 mg/kg/day
TD50 (rat, strain Sprague-Dawley, males, in drinking water, site: liver, lesion: hyperplastic nodule, dosed 130 weeks, study length 130 weeks): 8260 mg/kg/day
TD50 (rat, strain Sprague-Dawley, males, in drinking water, site: pancreas, lesion: carcinoma, dosed 104 weeks, study length 120 weeks): 17500 mg/kg/day
TD50 (rat, strain Sprague-Dawley, males, in drinking water, site: pancreas, lesion: one or several types, types not named, dosed 130 weeks, study length 130 weeks): 13700 mg/kg/day
TD50 (rat, strain Sprague-Dawley, males, in drinking water, site: pancreas, lesion: several types, types named in the paper, dosed 104 weeks, study length 120 weeks): 33200 mg/kg/day
TD50 (rat, strain Sprague-Dawley, males, in drinking water, site: pituitary gland, lesion: one or several types, types not named, dosed 130 weeks, study length 130 weeks): 9110 mg/kg/day

NC(=O)N(CCO)N=O
TD50 (mouse, strain Swiss, females, in drinking water, site: all sites, lesion: lymphoma, dosed 50 weeks, study length 51 weeks): 0.603 mg/kg/day
TD50 (mouse, strain Swiss, females, in drinking water, site: lung, lesion: adenoma, dosed 50 weeks, study length 51 weeks): 1.97 mg/kg/day
TD50 (mouse, strain Swiss, males, in drinking water, site: all sites, lesion: lymphoma, dosed 50 weeks, study length 51 weeks): 1.27 mg/kg/day
TD50 (mouse, strain Swiss, males, in drinking water, site: any site (literature study), lesion: one or several types, types not named, dosed 50 weeks, study length 51 weeks): 0.353 mg/kg/day
TD50 (mouse, strain Swiss, males, in drinking water, site: lung, lesion: adenoma, dosed 50 weeks, study length 51 weeks): 0.382 mg/kg/day
TD50 (rat, strain Fischer 344, females, by gavage, site: Zymbal's gland, lesion: carcinoma, dosed 37 weeks, study length 60 weeks): 3.15 mg/kg/day
TD50 (rat, strain Fischer 344, females, by gavage, site: colon, lesion: adenoma, dosed 37 weeks, study length 60 weeks): 1.53 mg/kg/day
TD50 (rat, strain Fischer 344, females, by gavage, site: forestomach, lesion: squamous-cell carcinoma, dosed 37 weeks, study length 60 weeks): 3.15 mg/kg/day
TD50 (rat, strain Fischer 344, females, by gavage, site: mammary gland, lesion: adenocarcinoma, dosed 37 weeks, study length 60 weeks): 0.452 mg/kg/day
TD50 (rat, strain Fischer 344, males, by gavage, site: Zymbal's gland, lesion: carcinoma, dosed 37 weeks, study length 55 weeks): 0.879 mg/kg/day
TD50 (rat, strain Fischer 344, males, by gavage, site: Zymbal's gland, lesion: several types, types named in the paper, dosed 37 weeks, study length 55 weeks): 0.568 mg/kg/day
TD50 (rat, strain Fischer 344, males, by gavage, site: colon, lesion: adenocarcinoma, dosed 37 weeks, study length 55 weeks): 0.983 mg/kg/day
TD50 (rat, strain Fischer 344, males, by gavage, site: colon, lesion: several types, types named in the paper, dosed 37 weeks, study length 55 weeks): 0.24 mg/kg/day
TD50 (rat, strain Fischer 344, males, by gavage, site: forestomach, lesion: several types, types named in the paper, dosed 37 weeks, study length 55 weeks): 0.203 mg/kg/day
TD50 (rat, strain Fischer 344, males, by gavage, site: forestomach, lesion: squamous-cell carcinoma, dosed 37 weeks, study length 55 weeks): 0.637 mg/kg/day
TD50 (rat, strain Fischer 344, males, by gavage, site: lung, lesion: malignant tumor, dosed 37 weeks, study length 55 weeks): 0.602 mg/kg/day
TD50 (rat, strain Fischer 344, males, by gavage, site: lung, lesion: several types, types named in the paper, dosed 37 weeks, study length 55 weeks): 0.0776 mg/kg/day
TD50 (rat, strain MRC-Wistar, females, in drinking water, site: all sites, lesion: B-cell lymphoma, dosed 39 weeks, study length 85 weeks): 3.16 mg/kg/day
TD50 (rat, strain MRC-Wistar, females, in drinking water, site: all sites, lesion: myelocytic leukemia, dosed 39 weeks, study length 85 weeks): 3.16 mg/kg/day (inactive)
TD50 (rat, strain MRC-Wistar, females, in drinking water, site: any site (literature study), lesion: one or several types, types not named, dosed 39 weeks, study length 85 weeks): 0.32 mg/kg/day
TD50 (rat, strain MRC-Wistar, females, in drinking water, site: liver, lesion: one or several types, types not named, dosed 39 weeks, study length 85 weeks): 10 mg/kg/day
TD50 (rat, strain MRC-Wistar, males, in drinking water, site: all sites, lesion: B-cell lymphoma, dosed 39 weeks, study length 85 weeks): 1.56 mg/kg/day
TD50 (rat, strain MRC-Wistar, males, in drinking water, site: all sites, lesion: lymphocytic lymphoma, dosed 52 weeks, study length 70 weeks): 2.03 mg/kg/day
TD50 (rat, strain MRC-Wistar, males, in drinking water, site: all sites, lesion: malignant lymphoma, dosed 52 weeks, study length 70 weeks): 2.03 mg/kg/day
TD50 (rat, strain MRC-Wistar, males, in drinking water, site: all sites, lesion: myelocytic leukemia, dosed 39 weeks, study length 85 weeks): 2.02 mg/kg/day (inactive)
TD50 (rat, strain MRC-Wistar, males, in drinking water, site: any site (literature study), lesion: one or several types, types not named, dosed 39 weeks, study length 85 weeks): 0.195 mg/kg/day
TD50 (rat, strain MRC-Wistar, males, in drinking water, site: any site (literature study), lesion: several types, types named in the paper, dosed 52 weeks, study length 70 weeks): 0.36 mg/kg/day
TD50 (rat, strain MRC-Wistar, males, in drinking water, site: bone, lesion: osteosarcoma, dosed 39 weeks, study length 85 weeks): 1.56 mg/kg/day
TD50 (rat, strain MRC-Wistar, males, in drinking water, site: bone, lesion: osteosarcoma, dosed 52 weeks, study length 70 weeks): 1.52 mg/kg/day
TD50 (rat, strain MRC-Wistar, males, in drinking water, site: liver, lesion: one or several types, types not named, dosed 39 weeks, study length 85 weeks): 2.77 mg/kg/day
TD50 (rat, strain Wistar, males, in drinking water, site: all sites, lesion: B-cell lymphoma, dosed 90 weeks, study length 90 weeks): 15.9 mg/kg/day
TD50 (rat, strain Wistar, males, in drinking water, site: all sites, lesion: myelocytic leukemia, dosed 90 weeks, study length 90 weeks): 3.66 mg/kg/day
TD50 (rat, strain Wistar, males, in drinking water, site: any site (literature study), lesion: one or several types, types not named, dosed 90 weeks, study length 90 weeks): 0.576 mg/kg/day
TD50 (rat, strain Wistar, males, in drinking water, site: kidney, lesion: one or several types, types not named, dosed 90 weeks, study length 90 weeks): 4.93 mg/kg/day
TD50 (rat, strain Wistar, males, in drinking water, site: lung, lesion: one or several types, types not named, dosed 90 weeks, study length 90 weeks): 1.59 mg/kg/day
TD50 (rat, strain Wistar, males, in drinking water, site: mammary gland, lesion: adenocarcinoma, dosed 90 weeks, study length 90 weeks): 4.14 mg/kg/day
